Reference: US7473790B2 (Pfizer Inc., priority 2003, dated 2009)

Molecular target: T1, HCV polymerase (Hepatitis C virus genotype 1b, UniProt P26663)
T1 construct: 2.5 pmoles (0.15 μg) HCV polymerase protein in a final volume of 75 μL
Test: HCV polymerase primer/template-directed transcription assay (32P-GTP incorporation, filter binding)
Type: biochemical
Conditions: @ 50 uM compound; given where IC50 was impractical to calculate; read-out: percent inhibition
In short: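 IC50s come from triplicate cpm, refit with an enzyme-concentration (30 nM) correction when under 200 nM. Reactions ran 30 min at 30° C in Tris pH 7.2 with MgCl2, 1 μM GTP spiked with α-32P-GTP, biotin-dG12 primer and poly(rC)300 template, with 1% DMSO. Incorporated label was collected on DE filtermats and counted.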

T1 sequence (P26663 2420-3010): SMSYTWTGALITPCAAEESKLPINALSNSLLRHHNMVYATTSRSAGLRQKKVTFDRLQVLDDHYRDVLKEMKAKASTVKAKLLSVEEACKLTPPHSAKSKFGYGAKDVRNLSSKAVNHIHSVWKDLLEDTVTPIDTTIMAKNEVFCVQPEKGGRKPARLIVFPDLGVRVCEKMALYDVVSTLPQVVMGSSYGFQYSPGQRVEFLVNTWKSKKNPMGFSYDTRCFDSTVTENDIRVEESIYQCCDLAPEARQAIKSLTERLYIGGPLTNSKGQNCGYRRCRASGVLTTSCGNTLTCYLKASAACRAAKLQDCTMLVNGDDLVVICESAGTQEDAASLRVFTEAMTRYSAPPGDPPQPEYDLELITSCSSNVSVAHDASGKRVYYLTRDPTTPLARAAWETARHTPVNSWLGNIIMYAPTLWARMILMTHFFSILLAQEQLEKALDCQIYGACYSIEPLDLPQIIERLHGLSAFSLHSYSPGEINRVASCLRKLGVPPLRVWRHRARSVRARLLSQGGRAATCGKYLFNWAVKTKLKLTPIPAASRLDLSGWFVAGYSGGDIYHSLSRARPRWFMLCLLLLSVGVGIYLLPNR

CC(C)c1ccc(SCC2(C3CCCC3)CC(=O)CC(=O)O2)cc1 (stereo not shown) [I(4), 6-cyclopentyl-6-{[(4-isopropylphenyl)thio]methyl}dihydro-2H-pyran-2,4(3H)-dione] was tested, and the inhibition at 50 µM was 44%.

Same assay, conditions: recombinant HCV polymerase; 30 minutes at 30° C.; concentration giving 50% inhibition of polymerase-directed transcription; read-out: IC50

Compared with CCCC1(CCc2ccc(OC)cc2)CC(=O)CC(=O)O1 (stereo not shown) [A(25), 6-[2-(4-Methoxy-phenyl)-ethyl]-6-propyl-dihydro-pyran-2,4-dione], CC(C)(CO)c1ccc(CCC2(C3CCCC3)CC(=O)CC(=O)O2)cc1F (stereo not shown) [A(121), 6-Cyclopentyl-6-{2-[3-fluoro-4-(2-hydroxy-1,1-dimethyl-ethyl)-phenyl]-ethyl}-dihydro-pyran-2,4-dione] is 57-fold lower in IC50: 73900 nM for the first, 1300 nM for the second.

Compared with CC(C)(C#N)c1ccc(CCC2(C3CCCC3)CC(O)=C(Cc3cn4ccccc4n3)C(=O)O2)cc1F (stereo not shown) [A(103), 2-(4-{2-[2-cyclopentyl-4-hydroxy-5-(imidazo[1,2-a]pyridin-2-ylmethyl)-6-oxo-3,6-dihydro-2H-pyran-2-yl]ethyl}-2-fluorophenyl)-2-methylpropanenitrile], CC(C)(C#N)c1ccc(CCC2(C3CCCC3)CC(O)=C(Cc3cccc(S(C)(=O)=O)c3)C(=O)O2)cc1F (stereo not shown) [A(101), 2-[4-(2-{2-cyclopentyl-4-hydroxy-5-[3-(methylsulfonyl)benzyl]-6-oxo-3,6-dihydro-2H-pyran-2-yl}ethyl)-2-fluorophenyl]-2-methylpropanenitrile] is 2.7-fold lower in IC50: 180 nM for the first, 66 nM for the second. The second is the more potent here.

COc1ccc(CCC2(C3CCCC3)CC(O)=C(Sc3nc4ccccc4n3C(C)C)C(=O)O2)cc1Cl (stereo not shown) [C(44), 6-[2-(3-chloro-4-methoxyphenyl)ethyl]-6-cyclopentyl-4-hydroxy-3-[(1-isopropyl-1H-benzimidazol-2-yl)thio]-5,6-dihydro-2H-pyran-2-one] and COc1ccc(CCC2(C3CCCC3)CC(O)=C(Sc3nc4c(O)cccc4[nH]3)C(=O)O2)cc1Cl (stereo not shown) [C(58), 6-[2-(3-chloro-4-methoxyphenyl)ethyl]-6-cyclopentyl-4-hydroxy-3-[(4-hydroxy-1H-benzimidazol-2-yl)thio]-5,6-dihydro-2H-pyran-2-one] are within 1.5-fold of each other in IC50: 180 nM for the first, 140 nM for the second.

Compared with CCc1cc(CCC2(C3CCCC3)CC(O)=C(Cc3nc4ncc(Cl)cn4n3)C(=O)O2)ccc1O (stereo not shown) [A(127), 3-(6-Chloro-[1,2,4]triazolo[1,5-a]pyrimidin-2-ylmethyl)-6-cyclopentyl-6-[2-(3-ethyl-4-hydroxy-phenyl)-ethyl]-4-hydroxy-5,6-dihydro-pyran-2-one], CC(C)(C#N)c1ccc(CCC2(C3CCCC3)CC(O)=C(Cc3nc4ncc(Cl)cn4n3)C(=O)O2)cc1Cl (single isomer, unassigned) [A(204), 2-(2-Chloro-4-{2-[5-(6-chloro-[1,2,4]triazolo[1,5-a]pyrimidin-2-ylmethyl)-2-cyclopentyl-4-hydroxy-6-oxo-3,6-dihydro-2H-pyran-2-yl]-ethyl}-phenyl)-2-methyl-propionitrile] is 3.4-fold higher in IC50: 5 nM for the first, 17 nM for the second. The first is the more potent here.

Compared with Cc1cc(C)n2nc(CC3=C(O)CC(CCc4ccc(C5(C#N)CCCC5)c(F)c4)(C4CCCC4)OC3=O)nc2n1 (stereo not shown) [A(188), 1-(4-{2-[2-Cyclopentyl-5-(5,7-dimethyl-[1,2,4]triazolo[1,5-a]pyrimidin-2-ylmethyl)-4-hydroxy-6-oxo-3,6-dihydro-2H-pyran-2-yl]-ethyl}-2-fluoro-phenyl)-cyclopentanecarbonitrile], CCOc1ccc(CCC2(C3CCCC3)CC(O)=C(Cc3nc4nc(C)cc(C)n4n3)C(=O)O2)cc1C (stereo not shown) [B(10), 6-Cyclopentyl-3-(5,7-dimethyl-[1,2,4]triazolo[1,5]pyrimidin-2-ylmethyl)-6-[2-(4-ethoxy-3-methyl-phenyl)-ethyl]-4-hydroxy-5,6-dihydro-pyran-2-one] is 8.8-fold higher in IC50: 6 nM for the first, 53 nM for the second. The first is the more potent here.

Going from COc1cc(OC)c(CCC2(C3CCCC3)CC(O)=C(Cc3nc4ccsc4c(=O)[nH]3)C(=O)O2)cc1Cl (stereo not shown) [B(64), 2-({6-[2-(5-Chloro-2,4-dimethoxyphenyl)ethyl]-6-cyclopentyl-4-hydroxy-2-oxo-5,6-dihydro-2H-pyran-3-yl}methyl)thieno[3,2-d]pyrimidin-4(3H)-one] to CCc1noc(CC2=C(O)CC(CCc3cc(Cl)c(OC)cc3OC)(C3CCCC3)OC2=O)n1 (stereo not shown) [B(62), 6-[2-(5-Chloro-2,4-dimethoxyphenyl)ethyl]-6-cyclopentyl-3-[(3-ethyl-1,2,4-oxadiazol-5-yl)methyl]-4-hydroxy-5,6-dihydro-2H-pyran-2-one], the IC50 rises from 33 nM to 200 nM (6.1-fold).

First: Cc1cnc2nc(CC3=C(O)CC(CCc4ccc(C(C)(C)C#N)c(Cl)c4)(C4CCCC4)OC3=O)nn2c1 (stereo not shown) [A(199), 2-(2-Chloro-4-{2-[2-cyclopentyl-4-hydroxy-5-(6-methyl-[1,2,4]triazolo[1,5-a]pyrimidin-2-ylmethyl)-6-oxo-3,6-dihydro-2H-pyran-2-yl]-ethyl}-phenyl)-2-methyl-propionitrile]
Second: CCc1cc(CCC2(C3CCCC3)CC(O)=C(Cc3nc4nc(C)cc(C)n4n3)C(=O)O2)ccc1OCCO (stereo not shown) [B(104), 6-Cyclopentyl-3-(5,7-dimethyl-[1,2,4]triazolo[1,5-a]pyrimidin-2-ylmethyl)-6-{2-[3-ethyl-4-(2-hydroxy-ethoxy)-phenyl]-ethyl}-4-hydroxy-5,6-dihydro-pyran-2-one]
The IC50 of the first is 3.3-fold higher: 10 nM for the first, 3 nM for the second. The second is the more potent here.

Going from N#CC1(c2ccc(CCC3(C4CCCC4)CC(=O)CC(=O)O3)cc2Cl)CC1 (stereo not shown) [A(149), 1-{2-Chloro-4-[2-(2-cyclopentyl-4,6-dioxo-tetrahydro-pyran-2-yl)-ethyl]-phenyl}-cyclopropanecarbonitrile] to O=C1CC(=O)OC(CCc2cc(F)cc(F)c2)(C2CCCC2)C1 (stereo not shown) [A(122), 6-Cyclopentyl-6-[2-(3,5-difluoro-phenyl)-ethyl]-dihydro-pyran-2,4-dione], the IC50 rises from 3900 nM to 31000 nM (7.9-fold).

Going from CCc1cc(CCC2(C3CCCC3)CC(=O)CC(=O)O2)cc(CC)c1O (stereo not shown) [A(235), 6-cyclopentyl-6-[2-(3,5-diethyl-4-hydroxyphenyl)ethyl]dihydro-2H-pyran-2,4(3H)-dione] to COc1ccc(CCC2(C3CCCC3)CC(O)=C(Cc3ccc(-n4c(C)ccc4C)cc3)C(=O)O2)cc1Cl (stereo not shown) [B(06), 6-[2-(3-Chloro-4-methoxy-phenyl)-ethyl]-6-cyclopentyl-3-[4-(2,5-dimethyl-pyrrol-1-yl)-benzyl]-4-hydroxy-5,6-dihydro-pyran-2-one], the IC50 falls from 890 nM to 150 nM (5.9-fold).

Going from O=C1OC(CCC2CCCC2)(C2CCCC2)CC(O)=C1Sc1nnc(-c2ccncc2)[nH]1 (stereo not shown) [C(28), 6-Cyclopentyl-6-(2-cyclopentyl-ethyl)-4-hydroxy-3-(5-pyridin-4-yl-4H-[1,2,4]triazol-3-ylsulfanyl)-5,6-dihydro-pyran-2-one] to COc1cc(OC)c(CCC2(C3CCCC3)CC(O)=C(Sc3nnc(CCN4CCOCC4)n3C)C(=O)O2)cc1Cl (stereo not shown) [C(90), 6-[2-(5-chloro-2,4-dimethoxyphenyl)ethyl]-6-cyclopentyl-4-hydroxy-3-{[4-methyl-5-(2-morpholin-4-ylethyl)-4H-1,2,4-triazol-3-yl]thio}-5,6-dihydro-2H-pyran-2-one], the IC50 falls from 8000 nM to 40 nM (200-fold). The second is the more potent here.

N#CC1(c2ccc(CCC3(C4CCCC4)CC(=O)C(Cc4nc5ncccn5n4)C(=O)O3)cc2F)CC1 (stereo not shown) [A(114), 1-{4-[2-(2-Cyclopentyl-4,6-dioxo-5-[1,2,4]triazolo[1,5-a]pyrimidin-2-ylmethyl-tetrahydro-pyran-2-yl)-ethyl]-2-fluoro-phenyl}-cyclopropanecarbonitrile] showed an IC50 of 10 nM.
